# In patent publication US20210255193A1, “LYSINE REACTIVE PROBES AND USES THEREOF” (The Scripps Research Institute, priority 2017, published 2021):
# Tests used:
# Assay in all cases: competitive isoTOP-ABPP
# Format in all cases: binding
# RTN3 Reticulon-3 = molecular target: T1, RTN3 Reticulon-3 (Homo sapiens, UniProt O95197); settings: 50 uM, in vitro; for isoTOP-ABPP ratio (R) at liganded lysine O95197_K1022: sol, 231; for isoTOP-ABPP reactivity ratio at lysine O95197_K1022: 231 sol
# T1 construct: isoTOP-ABPP experiments performed in cell lysates (in vitro); endogenous in cells; host or cells: MDA-MB-231 soluble lysate
# T1 sequence (O95197 1-1032): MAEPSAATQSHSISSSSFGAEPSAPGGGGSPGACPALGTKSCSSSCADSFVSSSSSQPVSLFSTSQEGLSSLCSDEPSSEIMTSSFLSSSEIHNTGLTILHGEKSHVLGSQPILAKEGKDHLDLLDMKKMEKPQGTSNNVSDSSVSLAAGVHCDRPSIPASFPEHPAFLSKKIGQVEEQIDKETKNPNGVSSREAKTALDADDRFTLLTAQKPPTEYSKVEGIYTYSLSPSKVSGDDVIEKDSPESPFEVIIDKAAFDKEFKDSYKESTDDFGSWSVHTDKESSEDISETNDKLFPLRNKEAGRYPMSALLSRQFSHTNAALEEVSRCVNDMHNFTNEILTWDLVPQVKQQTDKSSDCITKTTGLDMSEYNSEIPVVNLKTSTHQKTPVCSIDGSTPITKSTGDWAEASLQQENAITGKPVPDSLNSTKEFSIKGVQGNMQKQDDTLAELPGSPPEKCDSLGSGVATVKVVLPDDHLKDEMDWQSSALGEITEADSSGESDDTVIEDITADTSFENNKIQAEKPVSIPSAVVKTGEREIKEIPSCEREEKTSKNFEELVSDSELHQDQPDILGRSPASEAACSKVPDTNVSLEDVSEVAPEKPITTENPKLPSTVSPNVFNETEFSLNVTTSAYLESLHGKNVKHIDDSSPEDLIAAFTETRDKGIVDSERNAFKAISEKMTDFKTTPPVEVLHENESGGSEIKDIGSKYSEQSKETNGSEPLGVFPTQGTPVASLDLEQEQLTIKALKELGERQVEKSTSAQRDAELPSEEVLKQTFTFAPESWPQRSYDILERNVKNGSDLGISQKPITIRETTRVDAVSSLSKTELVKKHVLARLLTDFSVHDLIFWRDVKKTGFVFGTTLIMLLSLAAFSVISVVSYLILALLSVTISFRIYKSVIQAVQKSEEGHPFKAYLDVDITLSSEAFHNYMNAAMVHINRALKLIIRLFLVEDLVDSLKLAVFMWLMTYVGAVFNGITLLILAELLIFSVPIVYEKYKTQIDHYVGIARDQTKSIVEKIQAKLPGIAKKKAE
# Method in brief: (§1)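 Cell lysate (0.5 ml) was pre-treated with fragment, 50 μM for activated esters or 100 μM for guanidinylating agents, versus DMSO, then labeled 1 h at ambient temperature with 0.1 mM STP-alkyne. Light/heavy TEV tags attached by CuAAC; R = DMSO/compound MS1 peak-area ratio, median per lysine.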
# SFXN1 Sideroflexin-1 = molecular target: T2, SFXN1 Sideroflexin-1 (Homo sapiens, UniProt Q9H9B4); settings: for isoTOP-ABPP ratio (R) at liganded lysine Q9H9B4_K170 / isoTOP-ABPP reactivity ratio at lysine Q9H9B4_K170: 50 uM, in vitro; for isoTOP-ABPP ratio (R) at liganded lysine Q9H9B4_K170: sol, 231; for isoTOP-ABPP reactivity ratio at lysine Q9H9B4_K170: 231 sol
# T2 construct: endogenous in cells; host or cells: MDA-MB-231 lysate
# T2 sequence (Q9H9B4 1-322): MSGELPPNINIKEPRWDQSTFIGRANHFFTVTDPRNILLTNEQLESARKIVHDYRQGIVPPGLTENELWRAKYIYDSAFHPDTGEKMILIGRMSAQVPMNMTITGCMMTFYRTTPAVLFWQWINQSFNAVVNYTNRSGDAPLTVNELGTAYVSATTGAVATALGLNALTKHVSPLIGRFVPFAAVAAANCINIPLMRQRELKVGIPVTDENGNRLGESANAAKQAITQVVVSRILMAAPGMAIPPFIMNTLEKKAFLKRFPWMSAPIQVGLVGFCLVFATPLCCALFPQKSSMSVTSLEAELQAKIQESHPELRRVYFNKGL
# Method in brief: as §1
# [1] = molecular target: T3, RPL9P9 60S ribosomal protein L9 (Homo sapiens, UniProt P32969); settings: for isoTOP-ABPP ratio, lysine P32969_K82: 50 uM_231_sol_in vitro; for isoTOP-ABPP reactivity ratio at lysine P32969_K82 / isoTOP-ABPP ratio (R) at liganded lysine P32969_K82: 50 uM, in vitro; for isoTOP-ABPP reactivity ratio at lysine P32969_K82: 231 sol; for isoTOP-ABPP ratio (R) at liganded lysine P32969_K82: sol, 231
# T3 construct: isoTOP-ABPP experiments performed in cell lysates (in vitro); endogenous in cells; host or cells: soluble proteome of human cancer cell lines (MDA-MB-231; Ramos and Jurkat also prepared)
# Method in brief: as §1
smiles,measurement,setting,value
"O=C(Oc1ccc([N+](=O)[O-])cc1[N+](=O)[O-])C(c1ccccc1)(c1ccccc1)c1ccccc1 [fragment 42, 2,4-Dinitrophenyl 2,2,2-triphenylacetate]",isoTOP-ABPP ratio (R) at liganded lysine O95197_K1022,RTN3 Reticulon-3,1.1
"O=C(Oc1ccc([N+](=O)[O-])cc1[N+](=O)[O-])c1ccccc1Nc1cccc(C(F)(F)F)c1 [fragment 40, 2,4-Dinitrophenyl 2-((3-(trifluoromethyl)phenyl)amino)benzoate]",isoTOP-ABPP ratio (R) at liganded lysine O95197_K1022,RTN3 Reticulon-3,1.7
"O=C(CC12CC3CC(CC(C3)C1)C2)Oc1ccc([N+](=O)[O-])cc1[N+](=O)[O-] [fragment 38, 2,4-Dinitrophenyl 2-(adamantan-1-yl)acetate]",isoTOP-ABPP ratio (R) at liganded lysine Q9H9B4_K170,SFXN1 Sideroflexin-1,1.9
"O=C(ON1C(=O)CCC1=O)c1cc(C(F)(F)F)cc(C(F)(F)F)c1 [fragment 46, 3,5-Bis(trifluoromethyl)benzoic acid NHS ester]","isoTOP-ABPP ratio, lysine P32969_K82",[1],0.5
same,"isoTOP-ABPP ratio, lysine Q9H9B4_K170",SFXN1 Sideroflexin-1; 50 uM_231_sol_in vitro,0.9
"COc1cc(CCC(=O)Oc2ccc([N+](=O)[O-])cc2[N+](=O)[O-])cc(OC)c1OC [fragment 33, 2,4-Dinitrophenyl 3-(3,4,5-trimethoxyphenyl)propanoate]",isoTOP-ABPP reactivity ratio at lysine O95197_K1022,RTN3 Reticulon-3,1.4
"O=C(Oc1ccc([N+](=O)[O-])cc1[N+](=O)[O-])C(c1ccccc1)c1ccccc1 [fragment 30, 2,4-Dinitrophenyl 2,2-diphenylacetate]",isoTOP-ABPP reactivity ratio at lysine O95197_K1022,RTN3 Reticulon-3,20.0
same,isoTOP-ABPP reactivity ratio at lysine Q9H9B4_K170,SFXN1 Sideroflexin-1,4.5
"O=C(Oc1ccc([N+](=O)[O-])cc1[N+](=O)[O-])c1cc(C(F)(F)F)cc(C(F)(F)F)c1 [fragment 31, 2,4-Dinitrophenyl 3,5-bis(trifluoromethyl)benzoate]",isoTOP-ABPP reactivity ratio at lysine P32969_K82,[1],0.9
"O=C(CCc1cn(-c2ccccc2)nc1-c1ccccc1)Oc1ccc([N+](=O)[O-])cc1[N+](=O)[O-] [fragment 29, 2,4-Dinitrophenyl 3-(1,3-diphenyl-1H-pyrazol-4-yl)propanoate]",isoTOP-ABPP reactivity ratio at lysine O95197_K1022,RTN3 Reticulon-3,6.2
same,isoTOP-ABPP reactivity ratio at lysine Q9H9B4_K170,SFXN1 Sideroflexin-1,20.0
"CC(=O)Oc1ccc([N+](=O)[O-])cc1[N+](=O)[O-] [fragment 43, 2,4-Dinitrophenyl acetate]",isoTOP-ABPP ratio (R) at liganded lysine P32969_K82,[1],0.9
"CC(C)(C)OC(=O)N=C(NC(=O)OC(C)(C)C)n1cccn1 [fragment 50, reference compound]","isoTOP-ABPP ratio, lysine Q9H9B4_K170",SFXN1 Sideroflexin-1; 100 uM_231_sol_in vitro,1.9
"N#Cc1ccc(C(=O)Oc2ccc([N+](=O)[O-])cc2[N+](=O)[O-])cc1 [fragment 44, 2,4-Dinitrophenyl 4-cyanobenzoate]","isoTOP-ABPP ratio, lysine P32969_K82",[1],14.5
same,"isoTOP-ABPP ratio, lysine Q9H9B4_K170",SFXN1 Sideroflexin-1; 50 uM_231_sol_in vitro,0.9
"O=C(CCc1ccc2c(c1)OCO2)Oc1ccc([N+](=O)[O-])cc1[N+](=O)[O-] [fragment 45, 2,4-Dinitrophenyl 3-(benzo[d][1,3]dioxol-5-yl)propanoate]","isoTOP-ABPP ratio, lysine P32969_K82",[1],1.0
same,"isoTOP-ABPP ratio, lysine Q9H9B4_K170",SFXN1 Sideroflexin-1; 50 uM_231_sol_in vitro,2.1
"O=C(Oc1ccc([N+](=O)[O-])cc1[N+](=O)[O-])c1ccc2ccccc2n1 [fragment 35, 2,4-Dinitrophenyl quinoline-2-carboxylate]",isoTOP-ABPP ratio (R) at liganded lysine P32969_K82,[1],0.8
"CCn1cc(C(=O)Oc2c(F)c(F)c(F)c(F)c2F)c(=O)c2ccc(C)nc21 [fragment 28, Pentafluorophenyl 1-ethyl-7-methyl-4-oxo-1,4-dihydro-1,8-naphthyridine-3-carboxylate]",isoTOP-ABPP reactivity ratio at lysine O95197_K1022,RTN3 Reticulon-3,1.2
"CC(C)(C)OC(=O)NCCCC(=O)Oc1ccc([N+](=O)[O-])cc1[N+](=O)[O-] [fragment 41, 2,4-Dinitrophenyl 4-((tert-butoxycarbonyl)amino)butanoate]",isoTOP-ABPP ratio (R) at liganded lysine P32969_K82,[1],0.9
same,isoTOP-ABPP ratio (R) at liganded lysine O95197_K1022,RTN3 Reticulon-3,1.6
same,isoTOP-ABPP ratio (R) at liganded lysine Q9H9B4_K170,SFXN1 Sideroflexin-1,2.5
"Cn1cc(CC(=O)Oc2ccc([N+](=O)[O-])cc2[N+](=O)[O-])c2ccccc21 [fragment 32, 2,4-Dinitrophenyl 2-(1-methyl-1H-indol-3-yl)acetate]",isoTOP-ABPP reactivity ratio at lysine P32969_K82,[1],1.0
same,isoTOP-ABPP reactivity ratio at lysine Q9H9B4_K170,SFXN1 Sideroflexin-1,8.6
"O=C(Oc1ccc([N+](=O)[O-])cc1[N+](=O)[O-])c1ccc(Oc2ccccc2)cc1 [fragment 39, 2,4-Dinitrophenyl 4-phenoxybenzoate]",isoTOP-ABPP ratio (R) at liganded lysine P32969_K82,[1],0.7
